Source: patent US20260007613A1, “LONG-ACTING LOW-TOXICITY NOVEL CATIONIC LIPID COMPOUNDS AND COMPOSITION THEREOF” (BEIJING YOUCAREKECHUANG PHARMACEUTICAL TECHNOLOGY CO., LTD., priority 2023, published 2026)

Legend:
[1] = Particle size and polydispersity index (PDI) of lipid nanoparticles by dynamic light scattering; assay type: physicochemical; conditions: LNP formulation prepared from the cationic lipid, 25° C.
Experimental: The particle size and polydispersity index (PDI) were determined by dynamic light scattering using Malvern laser particle size analyzer.
10 μL of the liposome solution was weighed, diluted to 1 mL with RNase-free deionized water, and added to the sample pool. Each sample was measured in triplicate. The measurement conditions were: […] scattering angle, and 25° C.

[2] = tested on: 293T cells; assay: Fluorescent detection of Fluc-mRNA (cell transfection efficiency of LNP formulations); assay type: cell-based; conditions: for Multiples (YK-305): RLU of YK-305 / RLU of the lipid of the line; for Multiples (YK-310): RLU of YK-310 / RLU of the lipid of the line; for Multiples (YK-312): RLU of YK-312 / RLU of the lipid of the line; for Multiples (YK-318): RLU of YK-318 / RLU of the lipid of the line; for Multiples (YK-318) / Multiples (YK-319): Tables 5, 7, 11; for Multiples (YK-319): RLU of YK-319 / RLU of the lipid of the line; for Ratio relative to SM-102: RLU of the lipid / RLU of SM-102, times that of SM-102; for Relative light unit (RLU): LNP formulation of Fluc-mRNA, 96-well plate, 24 hours
Experimental: (§1) Cell recovery and passage: 293T cells were recovered, cultured in a culture dish, and passaged to the required number of cells.
(§2) Seeding plate: The cells in the culture dish were digested and counted. Cells were spread in a 96-well plate at 10,000 cells per well and in a 12-well plate at 150,000 cells per well. Cells were cultured overnight until the cells adhered to the wall.
(§3) Cell recovery and passage: the method was the same as in Example 3.
(§4) Seeding plate: the method was the same as in Example 3.
An LNP formulation containing […] of Fluc-mRNA (the carrier components of the LNP formulation were cationic lipid, neutral lipid, structured lipid and polymer-conjugated lipid with a molar ratio of 49:10:39.5:1.5, wherein the cationic lipid was listed in Table 1) was added to the cell culture medium of a 96-well plate, and further incubated for 24 hours. The corresponding reagent was added according to the instructions of the […] Luciferase Assay Kit, and the fluorescence expression intensity of each well was detected by an IVIS fluorescence detection system. This test verified the transfection efficiencies of LNP formulations in cells, see Tables 4-7 for specific test results.

[3] = tested on: 293T cells; assay: Cell survival rate determination (CCK-8); assay type: cell-based; conditions: LNP formulation of Fluc-mRNA, 24 hours, CCK-8
Experimental: as §1, §2, §3, §4
An LNP formulation containing […] of Fluc-mRNA (the carrier components of the LNP formulation were cationic lipid, neutral lipid, structured lipid and polymer-conjugated lipid with a molar ratio of 49:10:39.5:1.5, wherein the cationic lipid was listed in Table 1) and the formulation of Lipofectamine 3000 were added to the cell culture medium of a 96-well plate, and further cultivated for 24 hours. 10 μL of CCK-8 solution was then added to each well, and the culture plate was incubated in an incubator for 1 hour. The absorbance at 450 nm was measured by a microplate reader.
Cell survival rate can represent the toxicity of cationic lipids to cells. The higher the cell survival rate, the lower the toxicity to cells.

[4] = tested on: female BALB/C mice; assay: Live imaging in mice: protein expression of Fluc-mRNA delivered by LNP formulations; assay type: in vivo
Experimental: In addition, the protein expression and duration of mRNA in mice delivered by the cationic lipid delivery carriers designed were also verified.
(§5) The LNP formulation containing […] Fluc-mRNA was injected intramuscularly into female BALB/C mice aged 4 to 6 weeks old and weighed 17 to 19 g, and the mice were intraperitoneally injected with fluorescent imaging substrate at specific time points after administration (6 h, 24 h, 48 h and 7 d), where the mice were free to move for 5 minutes, and then the average radiation intensity (corresponding to fluorescence expression intensity) of the protein expression of the mRNA carried by the LNP in the mice was detected by the IVIS Spectrum small animal live imaging device.

[5] = tested on: liver; assay: Distribution of liposomes in mice: protein expression in the liver (live imaging); assay type: in vivo; conditions: at 6 h, intramuscular injection
Experimental: as §5
At 24 h, the LNP formulations prepared from all compounds had been metabolized in the liver and had no protein expression.

[6] = 6 h after intramuscular injection
[7] = 24 h after intramuscular injection
[8] = 48 h after intramuscular injection
[9] = 7 d after intramuscular injection

SMILES: CCCCCCCCC(CCCCCC)C(=O)OCCCCCCN(CCCCO)CCCCCCOC(=O)C(CCCCCC)CCCCCCCC (stereo not shown) [ALC-0315, reference compound]
- PDI (%) [1]: 21.2%
- Particle size (nm) [1]: 231 nm
- Multiples (YK-305) [2]: 13.48
- Multiples (YK-310) [2]: 12.69
- Multiples (YK-312) [2]: 9.91
- Multiples (YK-318) [2]: 5.50
- Multiples (YK-319) [2]: 12.03
- Ratio relative to SM-102 [2]: 1.27
- Cell survival rate (%) [3]: 51.03%
- average radiation intensity [4, 6]: 863760
- average radiation intensity [4, 7]: 190480
- average radiation intensity [4, 8]: 39810
- average radiation intensity [4, 9]: 7047
- protein expression in the liver [5]: had protein expression in the liver

SMILES: CCCCCCCCC(CCCCCCCC)OC(=O)CCCCCCCN(CCO)CCCCCCCC(=O)OCCC(CCCCCC)CCCCCC [Compound 21, reference compound]
- Relative light unit (RLU) [2]: 1432170 RLU
- Multiples (YK-305) [2]: 19.14
- Multiples (YK-310) [2]: 18.01
- Multiples (YK-312) [2]: 14.07
- Multiples (YK-318) [2]: 7.81
- Multiples (YK-319) [2]: 17.08
- Ratio relative to SM-102 [2]: 0.89
- Cell survival rate (%) [3]: 70.21%
- average radiation intensity [4, 6]: 610340
- average radiation intensity [4, 7]: 109840
- average radiation intensity [4, 8]: 30980
- average radiation intensity [4, 9]: 6445
- protein expression in the liver [5]: had protein expression in the liver

SMILES: CCCCCCC(CCCCCC)CCOC(=O)CCCCCCCN(CCO)CCCCCCCC(=O)OCCC(CCCCCC)CCCCCC [Compound 23, bis(3-hexylnonyl)-8,8′-((2-hydroxyethyl)azanediyl)dioctanoate, reference compound]
- PDI (%) [1]: 15.2%
- Particle size (nm) [1]: 147 nm
- Relative light unit (RLU) [2]: 1356022 RLU
- Multiples (YK-305) [2]: 20.21
- Multiples (YK-310) [2]: 19.02
- Multiples (YK-312) [2]: 14.86
- Multiples (YK-318) [2]: 8.25
- Multiples (YK-319) [2]: 18.04
- Ratio relative to SM-102 [2]: 0.85
- Cell survival rate (%) [3]: 71.50%
- average radiation intensity [4, 6]: 589400
- average radiation intensity [4, 7]: 104530
- average radiation intensity [4, 8]: 33125
- average radiation intensity [4, 9]: 6240
- protein expression in the liver [5]: had protein expression in the liver

SMILES: CCCCCCCCCCCCC(O)CN(C)CCCCCC(=O)OCC(CCCCCC)CCCCCCCC (stereo not shown) [HHMA, reference compound]
- PDI (%) [1]: 19.3%
- Particle size (nm) [1]: 150 nm
- Relative light unit (RLU) [2]: 2006110 RLU
- Multiples (YK-305) [2]: 13.66
- Multiples (YK-310) [2]: 12.86
- Multiples (YK-312) [2]: 10.04
- Multiples (YK-318) [2]: 5.58
- Multiples (YK-319) [2]: 12.20
- Ratio relative to SM-102 [2]: 1.25
- Cell survival rate (%) [3]: 66.47%
- average radiation intensity [4, 6]: 651020
- average radiation intensity [4, 7]: 119940
- average radiation intensity [4, 8]: 32557
- average radiation intensity [4, 9]: 5871
- protein expression in the liver [5]: had protein expression in the liver

SMILES: CCCCCCCCCCCOC(=O)CCCCCN(CCO)CCCCCCCC(=O)OC(CCCCCCCC)CCCCCCCC [SM-102, reference compound]
- PDI (%) [1]: 28.2%
- Particle size (nm) [1]: 177 nm
- Multiples (YK-310) [2]: 16.08
- Multiples (YK-312) [2]: 12.56
- Multiples (YK-318) [2]: 6.98
- Multiples (YK-319) [2]: 15.25
- Ratio relative to SM-102 [2]: 1.00
- Cell survival rate (%) [3]: 69.45%
- average radiation intensity [4, 6]: 701230
- protein expression in the liver [5]: had protein expression in the liver

SMILES: CCCCCCCCC(CCCCCCCC)OC(=O)CCCCCN(CCCCCC(=O)OC(CCCCCCCC)CCCCCCCC)C[C@H](O)CN(CC)CCO [YK-313]
- PDI (%) [1]: 17.7%
- Particle size (nm) [1]: 241 nm
- Relative light unit (RLU) [2]: 866536 RLU
- Multiples (YK-305) [2]: 31.63
- Multiples (YK-310) [2]: 29.77
- Multiples (YK-312) [2]: 23.25
- Ratio relative to SM-102 [2]: 0.54
- Cell survival rate (%) [3]: 68.93%
- average radiation intensity [4, 6]: 442180
- average radiation intensity [4, 7]: 104430
- average radiation intensity [4, 8]: 25560
- average radiation intensity [4, 9]: 3235
- protein expression in the liver [5]: no protein expression in the liver

SMILES: CCCCCCCCCCC(CCCCCCCCCC)CCCOC(=O)CCCN(CCCC(=O)OCCCC(CCCCCCCCCC)CCCCCCCCCC)C[C@H](O)CN(CCO)CCO [YK-321, (S)-bis(4-decyltetradecyl)-4,4′-((3-(bis(2-hydroxyethyl)amino)-2-hydroxypropyl)azanediyl)dibutyrate]
- PDI (%) [1]: 39.1%
- Particle size (nm) [1]: 182 nm
- Relative light unit (RLU) [2]: 1403416 RLU
- Multiples (YK-305) [2]: 18.33
- Multiples (YK-310) [2]: 18.38
- Multiples (YK-312) [2]: 14.36
- Multiples (YK-318) [2]: 7.97
- Multiples (YK-319) [2]: 17.43
- Ratio relative to SM-102 [2]: 0.87
- Cell survival rate (%) [3]: 72.34%
- average radiation intensity [4, 6]: 615600
- average radiation intensity [4, 7]: 101230
- average radiation intensity [4, 8]: 36565
- average radiation intensity [4, 9]: 6586
